The record followed here is ChEMBL document CHEMBL2429833, “A new class of bactericidal agents against S. aureus, MRSA and VRE derived from bisindolylmethane” (Med Chem Res, 2013).

The subject of one assay is PC-3. Briefly: Cytotoxicity against human PC3 cells after 48 hrs by MTT assay. It is filed as functional, cell-based. A general note: Tetrazolium dyes change colour on reduction, which living cells bring about.
Assay [1] deals with Staphylococcus aureus. Nature of the assay: Antibacterial activity against methicillin-resistant Staphylococcus aureus after 24 hrs by microdilution method. It is filed as functional. For orientation: In broth dilution the organism is exposed to a series of concentrations in liquid medium.
The test system of another assay is A549. Briefly: Cytotoxicity against human A549 cells after 48 hrs by MTT assay. It counts as functional, cell-based.
The next assay has as its system HeLa. Nature of the assay: Cytotoxicity against human HeLa cells after 48 hrs by MTT assay. It counts as functional, cell-based.
For assay [2], the system named is Enterococcus faecalis. Nature of the assay: Antibacterial activity against vancomycin-resistant Enterococcus faecalis after 24 hrs by microdilution method. It is filed as functional.
Assay [3] relates to Staphylococcus aureus. Briefly: Antibacterial activity against Staphylococcus aureus ATCC 29213 after 24 hrs by microdilution method. It counts as functional. The conditions noted are these: ATCC 29213, 24 h.
Assay [4] has as its system Enterococcus faecalis. Nature of the assay: Bactericidal activity against vancomycin-resistant Enterococcus faecalis after 24 hrs. It is filed as functional.
In assay [5] the test system is Staphylococcus aureus. Briefly: Bactericidal activity against Staphylococcus aureus ATCC 29213 after 24 hrs. It is filed as functional. The conditions noted are these: ATCC 29213, 24 h.
Assay [6] deals with Staphylococcus aureus. Briefly: Bactericidal activity against methicillin-resistant Staphylococcus aureus after 24 hrs. It counts as functional.
The next assay has as its system Pseudomonas aeruginosa. Nature of the assay: Antibacterial activity against Pseudomonas aeruginosa ATCC 27853 after 24 hrs by microdilution method. It is filed as functional, organism-based.
The next assay relates to Escherichia coli. Nature of the assay: Antibacterial activity against Escherichia coli ATCC 25922 after 24 hrs by microdilution method. It is filed as functional, organism-based.

Converted amounts (≈) assume the structure as drawn. The source made the active and inactive calls. Where only a bound is given, the exact number is not on record here.

One may read the IC50 as the point on the concentration scale where inhibition reaches its midpoint. Higher therefore signals lower potency. In general, MIC refers to the lowest concentration that inhibits growth of the organism. Higher therefore signals a need for much substance. What is called MBC is the smallest concentration meeting the test's criterion for killing. The low end stands for more potent killing, the high end for less potent killing.

As for `Fc1ccc(Cn2cc(C(c3ccc(F)cc3)c3cn(Cc4ccc(F)cc4)c4ccc(Br)cc34)c3cc(Br)ccc32)cc1`, the figures for the IC50 in the assay on PC-3, in the assay with A549 and in the assay on HeLa were 36.5 µM, 8.7 µM and 1.1 µM, respectively. Besides, the MIC against Staphylococcus aureus [1], in the assay with Enterococcus faecalis [2] and with Staphylococcus aureus [3] was more than 128 µg/mL each time.

Consider `Fc1ccc(C(c2cn(Cc3ccc(Br)cc3)c3ccc(Br)cc23)c2cn(Cc3ccc(Br)cc3)c3ccc(Br)cc23)cc1`, for which the IC50 in the assay on PC-3 was determined as 43.7 µM; with A549 it was 24.7 µM; with HeLa it was 49 µM. For the same compound, the MIC against Staphylococcus aureus [1], with Enterococcus faecalis [2] and in the assay on Staphylococcus aureus [3] was more than 128 µg/mL throughout.

Take `CCCCCCCCn1cc(C(c2ccc(F)cc2)c2cn(CCCCCCCC)c3ccc(Br)cc23)c2cc(Br)ccc21`: the results for the IC50 in the assay with PC-3, with A549 and with HeLa were 44.9 µM, 38.7 µM and 32.4 µM, respectively. The MIC in the assay on Staphylococcus aureus [1], in the assay on Enterococcus faecalis [2] and in the assay with Staphylococcus aureus [3] was more than 128 µg/mL each time.

With `Fc1ccc(C(c2cn(Cc3ccc(Cl)cc3)c3ccc(Br)cc23)c2cn(Cc3ccc(Cl)cc3)c3ccc(Br)cc23)cc1`, the IC50 in the assay with PC-3 is 38.5 µM; in the assay on A549 it was 22.8 µM; in the assay with HeLa, 18.5 µM. Moreover, the minimum inhibitory concentration (MIC) against Staphylococcus aureus [1], with Enterococcus faecalis [2] and against Staphylococcus aureus [3] was more than 128 µg/mL in each case.

Turning to `Cn1cc(C(c2ccc(F)cc2)c2cn(C)c3ccc(Br)cc23)c2cc(Br)ccc21`, the IC50 in the assay with PC-3 came out at 38.9 µM; with A549, 29.4 µM; in the assay on HeLa, 25.4 µM. The MIC with Staphylococcus aureus [1] stood at 8 µg/mL (≈ 15.2 µM); in the assay with Enterococcus faecalis [2] it was 8 µg/mL (≈ 15.2 µM); with Staphylococcus aureus [3], 4 µg/mL (≈ 7.6 µM). The MBC against Enterococcus faecalis [4] was determined as 8 µg/mL (≈ 15.2 µM); against Staphylococcus aureus [5] it was 4 µg/mL (≈ 7.6 µM); in the assay with Staphylococcus aureus [6] it was 8 µg/mL (≈ 15.2 µM).

As to `COc1ccc(Cn2cc(C(c3ccc(F)cc3)c3cn(Cc4ccc(OC)cc4)c4ccc(Br)cc34)c3cc(Br)ccc32)cc1`, the IC50 in the assay with PC-3 was 43.5 µM; in the assay on A549, 36.4 µM; in the assay with HeLa it was 48.5 µM. Besides, the minimum inhibitory concentration (MIC) against Staphylococcus aureus [1], in the assay on Enterococcus faecalis [2] and against Staphylococcus aureus [3] was more than 128 µg/mL throughout.

As for `O=S(=O)(c1ccc(F)cc1)n1cc(C(c2ccc(F)cc2)c2cn(S(=O)(=O)c3ccc(F)cc3)c3ccc(Br)cc23)c2cc(Br)ccc21`, the half-inhibitory concentration (IC50) in the assay with PC-3, with A549 and in the assay with HeLa was more than 100 µM throughout. Further, the MIC with Staphylococcus aureus [1], against Enterococcus faecalis [2] and against Staphylococcus aureus [3] was more than 128 µg/mL throughout.

For the compound `Fc1ccc(C(c2cn(Cc3ccccc3)c3ccc(Br)cc23)c2cn(Cc3ccccc3)c3ccc(Br)cc23)cc1`, the IC50 with PC-3 was 43.1 µM; in the assay with A549, 28.2 µM; with HeLa, 28.3 µM. The MIC in the assay on Staphylococcus aureus [1], with Enterococcus faecalis [2] and against Staphylococcus aureus [3] was more than 128 µg/mL throughout.

As for `Fc1ccc(C(c2c[nH]c3ccc(Br)cc23)c2c[nH]c3ccc(Br)cc23)cc1`, the IC50 was determined as 3.9 µM with PC-3, 4.5 µM with A549 and 2.7 µM in the assay on HeLa. Moreover, the values for the MIC in the assay with Staphylococcus aureus [1], in the assay on Enterococcus faecalis [2] and in the assay with Staphylococcus aureus [3] were 1 µg/mL (≈ 2.01 µM), 8 µg/mL (≈ 16.1 µM) and 1 µg/mL (≈ 2.01 µM), respectively. Further, the figures for the MBC against Enterococcus faecalis [4], against Staphylococcus aureus [5] and in the assay on Staphylococcus aureus [6] were 16 µg/mL (≈ 32.1 µM), 1 µg/mL (≈ 2.01 µM) and 1 µg/mL (≈ 2.01 µM), respectively. Moreover, the outcome in the assay on Pseudomonas aeruginosa and with Escherichia coli was inactive.

Take `COc1ccc(S(=O)(=O)n2cc(C(c3ccc(F)cc3)c3cn(S(=O)(=O)c4ccc(OC)cc4)c4ccc(Br)cc34)c3cc(Br)ccc32)cc1`: the 50% inhibitory concentration (IC50) with PC-3, in the assay on A549 and in the assay with HeLa was more than 100 µM throughout. Also, the MIC against Staphylococcus aureus [1], against Enterococcus faecalis [2] and in the assay on Staphylococcus aureus [3] was more than 128 µg/mL throughout.

Consider `CCCCCn1cc(C(c2ccc(F)cc2)c2cn(CCCCC)c3ccc(Br)cc23)c2cc(Br)ccc21`, for which the concentration for half-maximal inhibition (IC50) in the assay with PC-3 is 40.3 µM; in the assay on A549 it was 32.5 µM; in the assay on HeLa, 27.2 µM. Moreover, the minimum inhibitory concentration (MIC) against Staphylococcus aureus [1], with Enterococcus faecalis [2] and against Staphylococcus aureus [3] was more than 128 µg/mL in each case.
